Reference: patent publication US20230192705A1, “SHP2 INHIBITORS, COMPOSITIONS AND USES THEREOF” (Betta Pharmaceuticals Co., Ltd, priority 2020, published 2023)

Target: T1, SHP2 (Homo sapiens, UniProt Q06124)
T1 sequence (Q06124 1-593): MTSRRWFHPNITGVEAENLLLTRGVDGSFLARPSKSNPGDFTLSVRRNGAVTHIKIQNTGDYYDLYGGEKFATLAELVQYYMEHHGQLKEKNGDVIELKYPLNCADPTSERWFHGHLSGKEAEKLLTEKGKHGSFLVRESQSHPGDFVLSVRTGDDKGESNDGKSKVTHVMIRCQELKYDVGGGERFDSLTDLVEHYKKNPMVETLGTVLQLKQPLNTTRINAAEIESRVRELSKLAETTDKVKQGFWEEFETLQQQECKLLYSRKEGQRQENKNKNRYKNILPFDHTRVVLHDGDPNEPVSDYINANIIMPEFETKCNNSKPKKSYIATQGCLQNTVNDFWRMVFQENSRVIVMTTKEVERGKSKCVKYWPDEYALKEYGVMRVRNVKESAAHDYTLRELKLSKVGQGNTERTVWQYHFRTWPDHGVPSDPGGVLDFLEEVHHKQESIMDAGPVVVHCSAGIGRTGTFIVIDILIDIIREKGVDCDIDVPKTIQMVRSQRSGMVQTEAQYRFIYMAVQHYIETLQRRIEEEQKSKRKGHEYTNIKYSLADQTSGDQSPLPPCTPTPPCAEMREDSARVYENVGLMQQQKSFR
Assay: SHP2 allosteric inhibitor enzyme activity assay (DiFMUP fluorescence)
Type: biochemical
Settings: class symbols
Method in brief: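 SHP2 activated by 0.5 μM IRS1_pY1172(dPEG8)pY1222 peptide, 0.2 ng enzyme per well, 1 h at room temperature with compound (1 μM top, 3-fold series), then DiFMUP substrate 1 h. Buffer: 60 mM HEPES, 75 mM NaCl, 75 mM KCl, 0.05% BRIJ-35, 1 mM EDTA, 5 mM DTT. Fluorescence ex 340/em 450 nm; IC50 by variable-slope fit.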

SMILES | IC50 [nM]
CCOC(=O)Nc1ccc(C2(c3n[nH]c4nc(N5CCC6(CC5)CO[C@@H](C)[C@H]6N)[nH]c(=O)c34)CC2)cc1 [Example 303, ethyl(4-(1-(6-((3S,4S)-4-amino-3-methyl-2-oxa-8-azaspiro[4.5]decan-8-yl)-4-oxo-4,5-dihydro-1H-pyrazolo[3,4-d]pyrimidin-3-yl)cyclopropyl)phenyl)carbamate] | 20 to 60
N[C@@H]1c2ccccc2CC12CCN(c1nc3[nH]nc(C4=CCOc5cc(C(F)(F)F)ccc54)c3c(=O)[nH]1)CC2 [Example 168, (S)-6-(1-amino-1,3-dihydrospiro[indene-2,4′-piperidin]-1′-yl)-3-(7-(trifluoromethyl)-2H-chromen-4-yl)-1,5-dihydro-4H-pyrazolo[3,4-d]pyrimidin-4-one] | ≤ 20
N[C@@H]1c2ccccc2CC12CCN(c1nc3[nH]nc(C4(c5ccc(Cl)cc5Cl)CC4)c3c(=O)[nH]1)CC2 [Example 235, (S)-6-(1-amino-1,3-dihydrospiro[indene-2,4′-piperidin]-1′-yl)-3-(1-(2,4-dichlorophenyl)cyclopropyl)-1,5-dihydro-4H-pyrazolo[3,4-d]pyrimidin-4-one] | ≤ 20
Cc1cnc(C2(c3n[nH]c4nc(N5CCC6(CC5)Cc5ccccc5[C@H]6N)[nH]c(=O)c34)CC2)o1 [Example 244, (S)-6-(1-amino-1,3-dihydrospiro[indene-2,4′-piperidin]-1′-yl)-3-(1-(5-methyloxazol-2-yl)cyclopropyl)-1,5-dihydro-4H-pyrazolo[3,4-d]pyrimidin-4-one] | ≤ 20
CN(C)c1cc(C2(c3n[nH]c4nc(N5CCC6(CC5)Cc5ccccc5[C@H]6N)[nH]c(=O)c34)CC2)ccn1 [Example 54, (S)-6-(1-amino-1,3-dihydrospiro[indene-2,4′-piperidin]-1′-yl)-3-(1-(2-(dimethylamino)pyridin-4-yl)cyclopropyl)-1,5-dihydro-4H-pyrazolo[3,4-d]pyrimidin-4-one] | ≤ 20
C[C@@H]1OCC2(CCN(c3nc4[nH]nc(C5(c6ccccn6)CC5)c4c(=O)[nH]3)CC2)[C@@H]1N [Example 276, 6-((3S,4S)-4-amino-3-methyl-2-oxa-8-azaspiro[4.5]decan-8-yl)-3-(1-(pyridin-2-yl)cyclopropyl)-1,5-dihydro-4H-pyrazolo[3,4-d]pyrimidin-4-one] | 20 to 60
C[C@@H]1OCC2(CCN(c3nc4[nH]nc(C5(c6nncs6)CC5)c4c(=O)[nH]3)CC2)[C@@H]1N [Example 280, 3-(1-(1,3,4-thiadiazol-2-yl)cyclopropyl)-6-((3S,4S)-4-amino-3-methyl-2-oxa-8-azaspiro[4.5]decan-8-yl)-1,5-dihydro-4H-pyrazolo[3,4-d]pyrimidin-4-one] | > 60
N[C@@H]1c2ccccc2CC12CCN(c1nc3[nH]nc(C4=CCCc5ncccc54)c3c(=O)[nH]1)CC2 [Example 112, (S)-6-(1-amino-1,3-dihydrospiro[indene-2,4′-piperidin]-1′-yl)-3-(7,8-dihydroquinolin-5-yl)-1,5-dihydro-4H-pyrazolo[3,4-d]pyrimidin-4-one] | ≤ 20
N[C@@H]1Cc2ccccc2C12CCN(c1nc3[nH]nc(C4(c5ccccc5)CC4)c3c(=O)[nH]1)CC2 [Example 198, (R)-6-(2-amino-2,3-dihydrospiro[indene-1,4′-piperidin]-1′-yl)-3-(1-phenylcyclopropyl)-1,5-dihydro-4H-pyrazolo[3,4-d]pyrimidin-4-one] | 20 to 60
N[C@@H]1c2ccccc2CC12CCN(c1nc3[nH]nc(C4(c5ccccc5OC(F)(F)F)CC4)c3c(=O)[nH]1)CC2 [Example 16, (S)-6-(1-amino-1,3-dihydrospiro[indene-2,4′-piperidin]-1′-yl)-3-(1-(2-(trifluoromethoxy)phenyl)cyclo-propyl)-1,5-dihydro-4H-pyrazolo[3,4-d]pyrimidin-4-one] | ≤ 20
N[C@@H]1c2ccccc2CC12CCN(c1nc3[nH]nc(C4(c5ccnc(N6CCOCC6)c5Cl)CC4)c3c(=O)[nH]1)CC2 [Example 65, (S)-6-(1-amino-1,3-dihydrospiro[indene-2,4′-piperidin]-1′-yl)-3-(1-(3-chloro-2-morpholinopyridin-4-yl)cyclopropyl)-1,5-dihydro-4H-pyrazolo[3,4-d]pyrimidin-4-one] | 20 to 60
Nc1nccc(C2(c3n[nH]c4nc(N5CCC6(CC5)Cc5ccccc5[C@H]6N)[nH]c(=O)c34)CC2)c1Cl [Example 46, (S)-6-(1-amino-1,3-dihydrospiro[indene-2,4′-piperidin]-1′-yl)-3-(1-(2-amino-3-chloropyridin-4-yl)cyclopropyl)-1,5-dihydro-4H-pyrazolo[3,4-d]pyrimidin-4-one] | ≤ 20
N[C@@H]1c2ccccc2CC12CCN(c1nc3[nH]nc(C4(c5cccc6c5CC(=O)N6)CC4)c3c(=O)[nH]1)CC2 [Example 82, (S)-6-(1-amino-1,3-dihydrospiro[indene-2,4′-piperidin]-1′-yl)-3-(1-(2-oxoindolin-4-yl)cyclopropyl)-1,5-dihydro-4H-pyrazolo[3,4-d]pyrimidin-4-one] | ≤ 20
N[C@@H]1c2ccccc2CC12CCN(c1nc3[nH]nc(C4(c5ccccc5)CCCC4)c3c(=O)[nH]1)CC2 [Example 97, (S)-6-(1-amino-1,3-dihydrospiro[indene-2,4′-piperidin]-1′-yl)-3-(1-phenylcyclopentyl)-1,5-dihydro-4H-pyrazolo[3,4-d]pyrimidin-4-one] | 20 to 60
N[C@@H]1c2ccccc2CC12CCN(c1nc3[nH]nc(C4(c5cccc(OC(F)F)c5)CC4)c3c(=O)[nH]1)CC2 [Example 52, (S)-6-(1-amino-1,3-dihydrospiro[indene-2,4′-piperidin]-1′-yl)-3-(1-(3-(difluoromethoxy)plienyl)cyclo-propyl)-1,5-dihydro-4H-pyrazolo[3,4-d]pyrimidin-4-one] | ≤ 20
CC1(C)C=C(c2n[nH]c3nc(N4CCC5(CC4)Cc4ccccc4[C@H]5N)[nH]c(=O)c23)c2sc(N)nc2C1 [Example 159, (S)-6-(1-amino-1,3-dihydrospiro[indene-2,4′-piperidin]-1′-yl)-3-(2-amino-5,5-dimethyl-4,5-dihydrobenzo[d]thiazol-7-yl)-1,5-dihydro-4H-pyrazolo[3,4-d]pyrimidin-4-one] | 20 to 60
N[C@@H]1c2ccccc2CC12CCN(c1nc3[nH]nc(C4=C(F)CCc5ncccc54)c3c(=O)[nH]1)CC2 [Example 186, (S)-6-(1-amino-1,3-dihydrospiro[indene-2,4′-piperidin]-1′-yl)-3-(6-fluoro-7,8-dihydroquinolin-5-yl)-1,5-dihydro-4H-pyrazolo[3,4-d]pyrimidin-4-one] | ≤ 20
N[C@@H]1c2ccccc2CC12CCN(c1nc3[nH]nc(C4=CCC(F)(F)c5ncccc54)c3c(=O)[nH]1)CC2 [Example 169, (S)-6-(1-amino-1,3-dihydrospiro[indene-2,4′-piperidin]-1′-yl)-3-(8,8-difluoro-7,8-dihydroquinolin-5-yl)-1,5-dihydro-4H-pyrazolo[3,4-d]pyrimidin-4-one] | ≤ 20
N[C@@H]1c2ccccc2CC12CCN(c1nc3[nH]nc(C4(c5ccnc(NC6CCC6)c5Cl)CC4)c3c(=O)[nH]1)CC2 [Example 67, (S)-6-(1-amino-1,3-dihydrospiro[indene-2,4′-piperidin]-1′-yl)-3-(1-(3-chloro-2-(cyclobutylamino)pyridin-4-yl)cyclopropyl)-1,5-dihydro-4H-pyrazolo[3,4-d]pyrimidin-4-one] | ≤ 20
CN1c2ccccc2C(c2n[nH]c3nc(N4CCC5(CC4)Cc4ccccc4[C@H]5N)[nH]c(=O)c23)=CS1(=O)=O [Example 184, (S)-6-(1-amino-1,3-dihydrospiro[indene-2,4′-piperidin]-1′-yl)-3-(1-methyl-2,2-dioxido-1H-benzo[c][1,2]thiazin-4-yl)-1,5-dihydro-4H-pyrazolo[3,4-d]pyrimidin-4-one] | ≤ 20
CCCCCc1cc2c(s1)CCC=C2c1n[nH]c2nc(N3CCC4(CC3)Cc3ccccc3[C@H]4N)[nH]c(=O)c12 [Example 118, (S)-6-(1-amino-1,3-dihydrospiro[indene-2,4′-piperidin]-1′-yl)-3-(2-pentyl-6,7-dihydrobenzo[b]thiophen-4-yl)-1,5-dihydro-4H-pyrazolo[3,4-d]pyrimidin-4-one] | 20 to 60
C[C@@H]1OCC2(CCN(c3nc4[nH]nc(C5(c6nc7ccccc7o6)CC5)c4c(=O)[nH]3)CC2)[C@@H]1N [Example 284, 6-((3S,4S)-4-amino-3-methyl-2-oxa-8-azaspiro[4.5]decan-8-yl)-3-(1-(benzo[d]oxazol-2-yl)cyclopropyl)-1,5-dihydro-4H-pyrazolo[3,4-d]pyrimidin-4-one] | 20 to 60
Cc1snnc1C1(c2n[nH]c3nc(N4CCC5(CC4)Cc4ccccc4[C@H]5N)[nH]c(=O)c23)CC1 [Example 241, (S)-6-(1-amino-1,3-dihydrospiro[indene-2,4′-piperidin]-1′-yl)-3-(1-(5-methyl-1,2,3-thiadiazol-4-yl)cyclopropyl)-1,5-dihydro-4H-pyrazolo[3,4-d]pyrimidin-4-one] | ≤ 20
